Among the test systems are PC-3 prostate; HOP-62 NSCLC; KM12 colon; TK-10 renal; LOX IMVI melanoma; HCT-116 colon; SK-OV-3 ovarian.
Common to all, as to test: growth of human tumour cells (NCI), 48 h

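48-hour exposure; five concentrations; linearly interpolated endpoints. GI50: concentration for 50% inhibition of growth. TGI denotes the concentration required for complete inhibition of growth.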

Take `CNc1nc(N)nc(Nc2ccc(I)cc2)c1N=O`: the TGI in the experiment on PC-3 prostate, with HOP-62 NSCLC, with KM12 colon, in the experiment with TK-10 renal, in the experiment on LOX IMVI melanoma and with HCT-116 colon was over 100 µM throughout.

On to `N#CC(I)CS(=O)(=O)c1ccccc1` (stereo unspecified), for which the GI50 was 17 µM with PC-3 prostate; 19.3 µM with HOP-62 NSCLC; 18.9 µM in the experiment with KM12 colon; 1.75 µM in the experiment on TK-10 renal; 14.8 µM in the experiment on LOX IMVI melanoma; over 100 µM in the experiment on SK-OV-3 ovarian. Moreover, the GI50 with HCT-116 colon was 1.66 µM. For the same molecule, the TGI in the experiment on PC-3 prostate is 32.5 µM; in the experiment on HOP-62 NSCLC, 38.4 µM; in the experiment on KM12 colon, 34.4 µM; in the experiment on TK-10 renal, 3.3 µM; in the experiment on LOX IMVI melanoma, 28.3 µM; in the experiment with SK-OV-3 ovarian, over 100 µM. This molecule registered a TGI in the experiment with HCT-116 colon of 3.11 µM.

`COc1ccc(-c2cc(=O)oc3c4c(ccc23)OCN(Cc2ccc(F)cc2)C4)cc1`: the GI50 was 15.8 µM in the experiment with PC-3 prostate; 14.4 µM with HOP-62 NSCLC; 17.6 µM in the experiment with KM12 colon; 16.1 µM with TK-10 renal; 16.7 µM with LOX IMVI melanoma; 19.1 µM in the experiment on SK-OV-3 ovarian. In addition, the GI50 in the experiment with HCT-116 colon was 13.6 µM. Besides, the TGI in the experiment with PC-3 prostate was found to be 44.1 µM; with HOP-62 NSCLC it was 30.8 µM; in the experiment on KM12 colon, 35.2 µM; with TK-10 renal, 49.3 µM; in the experiment on LOX IMVI melanoma, 32.3 µM; in the experiment on SK-OV-3 ovarian it was 52.9 µM. This molecule had a TGI in the experiment with HCT-116 colon of 27.7 µM.

In the case of `CNc1cc2oc(=O)cc(C)c2cc1C`, the TGI in the experiment with PC-3 prostate, in the experiment on HOP-62 NSCLC, with TK-10 renal, with LOX IMVI melanoma and in the experiment on HCT-116 colon was over 100 µM throughout.

As to `COc1ccc(Cl)cc1NC(=O)c1ccc(NC2=C(Cl)C(=O)N(Cc3ccccc3)C2=O)cc1`, the GI50 in the experiment on PC-3 prostate was 52.6 µM; in the experiment on HOP-62 NSCLC, over 100 µM; in the experiment with KM12 colon it was 64.4 µM; in the experiment on TK-10 renal, over 100 µM; with LOX IMVI melanoma it was 8.5 µM; in the experiment with HCT-116 colon it was 37.7 µM. Besides, the TGI with PC-3 prostate, in the experiment with HOP-62 NSCLC, in the experiment with KM12 colon, in the experiment with TK-10 renal, in the experiment on LOX IMVI melanoma and in the experiment on HCT-116 colon was over 100 µM throughout.

Regarding `CN(Cc1cnc2nc(N)nc(N)c2n1)c1ccc(C(=O)N[C@@H](CCS(=O)(=O)O)C(=O)O)cc1`, the TGI in the experiment with PC-3 prostate, with HOP-62 NSCLC, with KM12 colon, in the experiment with TK-10 renal, with LOX IMVI melanoma and in the experiment with SK-OV-3 ovarian was over 100 µM throughout.

As to `CO[C@@H]1CC[C@]2(C)OC[C@H](C)[C@@H]3C[C@@H](C)[C@@H](OC(C)=O)[C@@H]4[C@H]3[C@@H]2O[C@H]4C[C@@]1(C)O`, the GI50 in the experiment with KM12 colon, in the experiment with TK-10 renal, in the experiment with LOX IMVI melanoma and with SK-OV-3 ovarian was over 100 µM each time. Moreover, the TGI in the experiment with KM12 colon, in the experiment on TK-10 renal, in the experiment with LOX IMVI melanoma and with SK-OV-3 ovarian was over 100 µM throughout.

As to `Cc1nc2c(Br)cc(Br)cc2c(=O)n1-c1nnc(-c2cccc(Cl)c2Cl)c(N)n1`, the GI50 was 23.6 µM with PC-3 prostate; 7.08 µM with HOP-62 NSCLC; 11.4 µM with KM12 colon; 12.9 µM in the experiment on LOX IMVI melanoma; 24.9 µM with SK-OV-3 ovarian; 12.8 µM with HCT-116 colon. In addition, the TGI in the experiment with PC-3 prostate was over 100 µM; in the experiment on HOP-62 NSCLC, 28.2 µM; in the experiment with KM12 colon, 40.3 µM; in the experiment on LOX IMVI melanoma it was 39.9 µM; in the experiment on SK-OV-3 ovarian, over 100 µM; with HCT-116 colon, 34.9 µM.

Turning to `COc1cc(/C=C2\CCCCC3=C2N=C2SC(C)=CN2C3c2cc(OC)c(OC)c(OC)c2)cc(OC)c1OC` (stereo unspecified), the GI50 with HOP-62 NSCLC was 4.7 µM; in the experiment with KM12 colon, 36.8 µM; in the experiment on TK-10 renal, 22.4 µM; in the experiment on LOX IMVI melanoma it was over 100 µM; in the experiment on SK-OV-3 ovarian it was 6.23 µM; in the experiment with HCT-116 colon, 7.32 µM. The TGI in the experiment on HOP-62 NSCLC, in the experiment on KM12 colon, in the experiment with TK-10 renal, in the experiment on LOX IMVI melanoma, with SK-OV-3 ovarian and in the experiment on HCT-116 colon was over 100 µM each time.

Regarding `CCN(CCNS(C)(=O)=O)c1ccc(N)c(C)c1`, the GI50 in the experiment on HOP-62 NSCLC was 16.2 µM; in the experiment on KM12 colon, 13.1 µM; with TK-10 renal it was 3.44 µM; in the experiment with LOX IMVI melanoma, 3.48 µM; with SK-OV-3 ovarian it was 17.9 µM; in the experiment on HCT-116 colon it was 2.5 µM. Besides, the TGI in the experiment on HOP-62 NSCLC was 31.1 µM; in the experiment on KM12 colon, 26.9 µM; with TK-10 renal, 7.73 µM; with LOX IMVI melanoma, 12.4 µM; in the experiment on SK-OV-3 ovarian, 32 µM; in the experiment with HCT-116 colon, 6.2 µM.

With `NCCCn1c2c(c3ccc([N+](=O)[O-])cc3c1=O)C(=O)c1cc(I)ccc1-2`, the GI50 in the experiment on PC-3 prostate is 0.563 µM; with HOP-62 NSCLC it was 0.0211 µM; in the experiment on KM12 colon, 0.127 µM; in the experiment on LOX IMVI melanoma, under 0.01 µM; with SK-OV-3 ovarian, 0.0825 µM; in the experiment on HCT-116 colon, under 0.01 µM. Also, the TGI in the experiment with PC-3 prostate was 2.07 µM; in the experiment with HOP-62 NSCLC it was 1.75 µM; in the experiment on KM12 colon it was 1.31 µM; in the experiment on LOX IMVI melanoma it was 1.39 µM; with SK-OV-3 ovarian, 6.5 µM; in the experiment with HCT-116 colon it was 0.201 µM.

Consider `COC(=O)c1c2c(c(C)[n+]([O-])c1C)C(=O)C(NCc1ccc(Br)cc1)=CC2=O`, for which the GI50 with HOP-62 NSCLC was 2.38 µM; in the experiment on LOX IMVI melanoma, 1.67 µM; with HCT-116 colon, 1.23 µM. Besides, the TGI in the experiment with HOP-62 NSCLC came out at 7.07 µM; in the experiment with LOX IMVI melanoma, 6.7 µM; in the experiment on HCT-116 colon, 3.77 µM.

In the case of `COC(=O)c1c(C)cc(OC)c(C/C=C(\C)CCCc2coc(C=C(C)C)c2)c1OC`, the TGI in the experiment with PC-3 prostate, in the experiment on HOP-62 NSCLC, in the experiment on KM12 colon, in the experiment with TK-10 renal, in the experiment on LOX IMVI melanoma and in the experiment on HCT-116 colon was over 100 µM each time.

In the case of `COc1c2occc2c(N)c2ccc(=O)oc12`, the TGI in the experiment with PC-3 prostate, with HOP-62 NSCLC, in the experiment with KM12 colon, in the experiment on TK-10 renal, with LOX IMVI melanoma and in the experiment with HCT-116 colon was over 100 µM each time.

Source of the values: PubChem BioAssay (NCI).
